Experiments:
[1] = system: medulloblastoma cell line DAOY; assay: Inhibition of growth of medulloblastoma cell line DAOY; type: cell-based; settings: over 7 days (FIG. 16)
Source text: For all cell culture experiments, cells are allowed to grow in the presence or absence of different concentrations of drug or in the presence of the vehicle used to dissolve the drug, PBS for compound 100 and DMSO for compound 102. Cell counts are done in triplicate on day 3 and day 7 and inhibition of growth is expressed as a percentage of the number of cells present in the experimental well divided by the number of cells in a control well.

[2] = system: 23 clinical fungal isolates; assay: Antifungal susceptibility testing, whole panel of 23 isolates; type: cell-based; settings: at the levels tested, 0.125-64 μg/ml
Protocol: Anti-fungal testing was completed with a common lot for compounds 100 and 102.
A 10 mg portion of each powder was weighed out and added to 1 ml of sterile distilled water for compound 100 and DMSO for compound 102. The resulting concentration of […] was diluted to a working concentration of 640 μg/ml for each compound. All subsequent dilutions were also made using the respective diluents. Final testing concentrations ranged from 0.125-64 μg/ml.
A total of 23 isolates were tested to include 3 Candida albicans, 3 Candida glabrata, 3 Cryptococcus neoformans, 3 Aspergillus fumigatus, 3 Rhizopus oryzae, 3, Fusarium solani, 3 Pseudallescheria boydii, and 2 […] rubrum. All isolates were clinical isolates submitted to the Fungus Testing Laboratory for evaluation. Antifungal susceptibility testing was accomplished according to the methods outlined in the National Committee for Clinical Laboratory Standards, M-27A2, Reference Method for Broth Dilution Antifungal Susceptibility Testing of Yeasts; Approved Standard, and M38-A “Reference Method for Broth Dilution Antifungal Susceptibility Testing of Conidium-Forming Filamentous Fungi; Approved Standard”. This includes testing in RPMI-1640 with glutamine and without bicarbonate, an inoculum size of 0.5-2.5×10^3 for yeasts or 1-5×10^4 for moulds, and incubation at 35° C. for 24 and 48 hours.

SMILES: CN1CCN(C(=O)C2C(C(=O)O)[C@H]3CC[C@@H]2O3)CC1 (some centres unmarked) [Compound 100, Endothall 4-Methylpiperazine Monoamide]
- Inhibition of growth of DAOY (in words) [1]: dose dependent inhibition
- Antifungal activity, all isolates (in words) [2]: no activity

From patent US10023587B2, “Oxabicycloheptanes and oxabicycloheptenes, their preparation and use” (LIXTE BIOTECHNOLOGY, INC., priority 2007, dated 2018)
